Data taken from article PMC10258805, “Nonpeptidic Oxazole-Based Prolyl Oligopeptidase Ligands with Disease-Modifying Effects on α-Synuclein Mouse Models of Parkinson’s Disease” (Journal of Medicinal Chemistry, 2023).
Where two headings read alike, the source gives them in different places.

Experiments:
[1] = system: pPP2Ac and PP2Ac in HEK-293 cells; test: PP2A marker assay (Western blot); format: cell-based, human; details: HEK-293, 10 μM, 4 h
[2] = system: LC3BII in HEK-293 cells; test: Autophagy marker LC3BII assay (Western blot); format: cell-based, human; details: HEK-293, 10 μM
[3] = system: pPP2Ac and PP2Ac in mouse brain; test: PP2A markers in mouse brain (Western blot); format: in vivo; details: 10 mg/kg i.p., 45 min after injection
[4] = system: AAV2-CBA-αSyn-injected mice; test: Cylinder test in AAV-αSyn PD mouse model; details: 10 mg/kg/day minipump, after 2 weeks of treatment (6-week time point), vs vehicle-treated AAV-αSyn mice
[5] = system: oligomeric αSyn in AAV-αSyn-injected mice; test: Oligomer-specific αSyn immunoreactivity (OD) in AAV-αSyn PD mouse model; details: 10 mg/kg/day minipump, 4 weeks
[6] = target: T1, PREP in mouse brain homogenate (Mus musculus, UniProt Q9QUR6); test: PREP inhibition measured with mouse brain homogenate; format: biochemical
T1 construct: from tissue; host or cells: mouse brain homogenate
T1 sequence (Q9QUR6 whole entry): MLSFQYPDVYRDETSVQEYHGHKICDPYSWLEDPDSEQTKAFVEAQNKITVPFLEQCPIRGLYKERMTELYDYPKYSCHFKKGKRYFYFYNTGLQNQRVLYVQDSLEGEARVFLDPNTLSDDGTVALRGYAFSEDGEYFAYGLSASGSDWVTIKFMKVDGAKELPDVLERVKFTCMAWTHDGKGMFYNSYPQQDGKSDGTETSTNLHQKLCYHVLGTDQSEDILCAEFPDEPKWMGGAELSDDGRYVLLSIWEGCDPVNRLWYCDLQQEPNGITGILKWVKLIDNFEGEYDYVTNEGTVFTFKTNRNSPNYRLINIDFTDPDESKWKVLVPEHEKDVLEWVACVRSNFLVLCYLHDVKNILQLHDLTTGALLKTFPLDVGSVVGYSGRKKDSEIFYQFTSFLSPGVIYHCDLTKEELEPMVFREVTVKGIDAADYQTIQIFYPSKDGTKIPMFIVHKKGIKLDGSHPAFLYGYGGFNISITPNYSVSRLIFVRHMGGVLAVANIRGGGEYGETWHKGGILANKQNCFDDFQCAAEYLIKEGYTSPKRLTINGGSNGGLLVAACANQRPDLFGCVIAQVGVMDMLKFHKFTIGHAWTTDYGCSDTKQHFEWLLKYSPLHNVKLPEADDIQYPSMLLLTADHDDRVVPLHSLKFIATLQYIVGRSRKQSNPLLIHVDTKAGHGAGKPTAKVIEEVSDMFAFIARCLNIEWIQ

[7] = system: HEK-293 cells stably expressing GFP-LC3B; test: Autophagic flux (GFP-LC3B reporter cells); details: Homo sapiens, HEK293, 24 h
[8] = system: ROS production in SH-SY5Y cells; test: ROS detection assay under oxidative stress; details: Homo sapiens, 3 h
[9] = system: αSyn dimerization in Neuro2A (N2A) cells; test: αSyn-dimerization assay (split Gaussia luciferase PCA); details: Mus musculus, N2a
[10] = Stability studies (NMR, MS, polarimetry, long-term monitoring); details: NMR samples in solution, 2-4 days at room temperature; UPLC-MS two or more weeks after isolation

N#C[C@@H]1CCCN1C(=O)[C@@H]1CCCN1C(=O)CCCc1ccccc1 [KYP-2047, reference compound]
total PP2Ac levels (in words) [1]: elevated total PP2Ac levels | LC3BII levels (in words) ([2]; 4 h): significant increase in LC3BII levels | LC3BII levels (in words) ([2]; 24 h): significantly elevated LC3BII levels | inactive pPP2Ac levels in mouse brain (in words) [3]: decreased inactive pPP2Ac levels, but this was not significant | levels of PP2Ac in mouse brain (in words) [3]: significantly increased the levels of PP2Ac | use of the ipsilateral forepaw in the cylinder test (in words) [4]: significantly decreased their use of the ipsilateral forepaw | OD of oligomeric αSyn in the SNpc (in words) ([5]; vs vehicle-treated group): did not significantly reduce | OD of oligomer-specific αSyn in the STR (in words) ([5]; vs vehicle-treated mice): decreased the OD of oligomer-specific αSyn

Cc1nc(C(=O)CCc2ccccc2)oc1N1CCCC1 [compound 25, 1-(4-Methyl-5-(pyrrolidin-1-yl)oxazol-2-yl)-3-phenylpropan-1-one]
inhibitory activity (in words) ([6]; Table 2: mouse brain homogenate): very weak inhibitor | IC50 ([6]; measured with mouse brain homogenate, read-out: IC50 (nM) (95% CI)): 90000 nM | activity at 10 µM ([7]; read-out: Autophagy at 10 uM (%)): 95% | activity at 10 µM ([7]; read-out: autophagy at 10 μM (%)): 95 ± 10% | activity at 10 µM ([8]; read-out: ROS at 10 uM (%)): 105% | activity at 10 µM ([8]; read-out: ROS at 10 μM (%)): 105 ± 8% | activity at 10 µM ([9]; read-out: aSyn dimerization at 10 uM (%)): 110% | activity at 10 µM ([9]; read-out: αSyn dimer. at 10 μM (%)): 110 ± 6%

Cc1nc(CCc2cccnc2)oc1N1CCCC1C#N (stereo not drawn) [compound 70]
long-term stability (in words) [10]: lowered the stability

Cc1nc(CCCc2ccccn2)oc1N1CCCC1C#N (stereo not drawn) [compound 69]
long-term stability (in words) [10]: lowered the stability
